Source: patent US10143705B2, “Method of treating a patient with a disease caused by a pathogenic mechanism associated with accumlation of methylglyoxal” (priority 2015, dated 2018)

Experiment: Inhibitory effect of monosaccharides against methylglyoxal in vitro
Conditions: concentration 0.05 M
Description: The percentage inhibitory ratio of monosaccharide against methylglyoxal is 50% when the concentration of the monosaccharide is 0.05 M.
Foregoing exemplary embodiments of the present invention manifest that the low-molecular-weight chitosan has considerable effect to the carbonyl stress induced by the methylglyoxal both in vivo and in vitro. For an exemplary embodiment in vitro, the present invention employs buffer to simulate the same environmental status as human body by means of putting glucosamine and low-molecular-weight chitosan into buffer containing methylglyoxal to measure the bonding ratio thereof after 16 hours so that the half Inhibitory concentration associated with the affecting of low-molecular-weight chitosan to methylglyoxal can be obtained for further study on the examination of the binding conjugation of low-molecular-weight chitosan with methylglyoxal in vitro.

NC1C(O)[C@H](O)C(CO)O[C@@H]1O (stereo partly shown) [monosaccharide, glucosamine]
percentage inhibitory ratio against methylglyoxal: 50%
